{"source": "patent US20240299393A1", "about": "“SMALL MOLECULE DISRUPTORS OF PROTEIN INTERACTIONS IN HISTONE DEACETYLASE COMPLEXES” (Dana-Farber Cancer Institute, Inc., priority 2021, published 2024)", "key": {"[1]": {"test": "Mouse liver microsome stability test", "format": "in vitro ADME", "details": "1 mg/mL hepatic microsomes", "experimental": "Mouse liver microsome (MLM) half-life measurements were performed by Scripps Florida Pharmacology Core, according to their protocols [Lamberto et al 2017]. 1 mg/mL hepatic microsomes was used to test compounds.\nTo assess whether E6R may be suitable for testing the effect of HDAC inhibition via new mechanisms in mouse, the half-life […] and intrinsic clearance (Clint) of this compound was first measured using a standard microsomal metabolic assay where sunitinib was used as a control [Lamberto et al 2017]. In this setting, compound degradation is induced by concentrated microsomes isolated from mouse liver. In particular, these hepatic extracts contain the cytochrome P450 system that is primarily responsible for first pass metabolism in vivo."}, "[2]": {"tested_on": "Rpd3-regulated genes (URS-URA3, INO1, IME2, CAR1, SPO13, TRK2)", "test": "RT-qPCR of Rpd3-regulated genes in yeast", "format": "cell-based, S. cerevisiae", "experimental": "After yeast cells reached OD600 nm ˜0.5 in 0.8-1 mL of YPD, they were grown for two more hours at room temperature before being centrifuged to remove supernatant and freezing pellets on dry ice. For compound treatments, yeast cells at OD600 nm˜0.5 in YPD were incubated at room temperature for two hours with DMSO (1-1.6%) or the desired compound (from 25 mM stock in 100% DMSO) in an 2 mL-tube for a final volume of 0.8 mL in YPD, before being centrifuged, washed and frozen as described above. Yeast cells were then harvested for RNA extraction using a RiboPure RNA Purification Kit (Invitrogen, cat #AM1926), which involves mechanical cell wall disruption, phenol extraction of the lysate, and RNA purification using glass fiber, and filter-based RNA purification columns. RNA concentration was measured for individually purified RNA samples using a NanoDrop spectrophotometer. A total of 1 μg RNA from each sample was used for reverse transcription following a published procedure [Choi, S. G. et al 2012].\n(§1) The RT-qPCR protocol used in this study was described elsewhere [Choi et al 2012]. Culture, RNA extraction, and compound treatments for neuroblastoma SK-N-BE(2)-C cells are described below. Approximately 1 μg RNA per sample was used for reverse transcription. Using a thermocycler, RNA was denatured in the presence of 0.2 μg 18 mer oligo-dT by heating the plate at 65° C. for 10 min. The plate was then immediately cooled down on ice to anneal oligo-dT on the poly-A tail of mRNA. A master mix of AffinityScript Multiple Temperature Reverses Transcriptase (Agilent, cat #600107) was prepared following the manufacturer's protocol, and mixed with RNA samples previously annealed with the oligo-dT. The plate was incubated at 42° C. for 2 h to generate cDNAs from mRNA templates. The reverse transcriptase was then denatured by heating the plate at 70° C. for 15 min. The resulting cDNA was diluted (1:20) in sterile, ultra pure water (ddH2O), and stored at −20° C. until used for qPCR. To measure gene expression, the diluted cDNA was mixed with 5 μL PowerUp SYBR Green master mix (Applied Biosystems, cat #A25743), and the mix of primers (forward+reverse, see FIG. 31; 0.3 μM final concentration) for a total volume of 10 μL. Two technical replicates were generated per cDNA sample in the 384-well PCR plate (Applied Biosystems, cat #4343370). The plate was tightly sealed with optical adhesive film (Applied Biosystems, cat #4311971). Quantitative PCR was conducted with a QuantStudio real-time PCR system from Applied Biosystems, with the following settings: 50° C./2 min, 95° C./10 min, 96° C./15 s/40 cycles, and 60° C./30 s. Dissociation curves were checked for each PCR product, to assess the specificity of the PCR amplicons.\nExpression of gene X normalized to the control gene expression=k*1.96^(Ct^Control^−Ct^Test^) • where k is an arbitrary multiplier (k=1000 in this study), 1.96 is the PCR amplification efficiency constant, Ct is the cycle threshold, CtControl is the Ct value for the housekeeping gene used as control (UBC6 in yeast [Teste et al 2009]; RPS11 in human cells [Zhan et al 2014], and CtTest is the Ct value for the tested gene. Replicates corresponding to DMSO treatments or WT yeast cells were averaged and other data points normalized using those DMSO or WT values as references (i.e. expression relative to DMSO or WT). TAF10 in yeast or SNRPD3 in human cells were used as genes not known for being regulated by an HDAC complex (HDAC-unrelated genes)."}, "[3]": {"tested_on": "HDAC class I and II enzymes (live yeast cells, HeLa nuclear extract, semi-purified human HDAC1)", "test": "HDAC-Glo I/II luminescence HDAC enzymatic assay", "format": "biochemical, S. cerevisiae; human", "details": "three HDAC sources", "protocol": "The HDAC-Glo I/II screening system (Promega, cat #G6430) was adapted to measure the effect of compounds on the enzymatic activity of human and yeast HDAC sources. […] FLAG-HDAC1 was eluted from anti-FLAG beads before running the assay, using a FLAG peptide. Nuclear extracts from human HeLa cells were provided in the assay kit. HDAC enzymatic activity was measured following the manufacturer's protocol. Briefly, linear ranges of the assay were determined by measuring luminescence signals, in a serial dilution manner, for semi-purified human HDAC1, or live yeast cells, diluted in the HDAC-Glo I/II buffer. For HeLa nuclear extracts, the manufacturer provided this information in the assay kit. For the different HDAC sources, dilution factors corresponding to signals in the linear ranges were used. To test the effect of compounds (three or four replicates) on HDAC enzymatic activity, equal volumes of HDAC sources (5 μL), and inhibitors (5 μL) were added to the different wells of a white, flat bottom 384-well plate. The plate was then briefly centrifuged with a tabletop centrifuge, and gently shaken for 1 min at 700 rpm. The plate was tightly sealed to prevent evaporation, and incubated at room temperature for 1 h. […] Luminescence signals were measured using a TriStar luminometer from Berthold Technologies, with 1 s integration time per sample. […]"}, "[4]": {"tested_on": "cycloheximide (CYH) sensitivity", "test": "Yeast cycloheximide sensitivity at 37° C.", "format": "cell-based, S. cerevisiae", "experimental": "For assessment of cycloheximide (CYH) sensitivity at 37° C., yeast cells with the cyh2^R genotype (FIG. 29) were first transformed with an empty pDEST-AD-TRP1-CYH2 plasmid (FIG. 30) before running the different experiments. Selection of the plasmid was maintained by culturing cells in SC-W medium."}, "[5]": {"tested_on": "CDKN1A, SOCS3, EGR1 in SK-N-BE(2)-C cells", "test": "RT-qPCR of SIN3 HDAC complex-regulated genes in neuroblastoma cells", "format": "cell-based, human", "details": "100 μM for 16 h", "experimental": "as §1\nSK-N-BE(2)-C cells were maintained in cell culture flasks supplemented with 10% Fetal bovine serum (FBS) and penicillin/streptomycin (PS) in Dulbecco's Modified Eagle's Medium (DMEM). The cells were maintained at a log phase in a humidified 5% CO2 incubator at 37° C. For testing the effect of the compounds on gene expression, approximately 0.1 million cells were seeded on each well of 24-well cell culture plates, with 1 mL 10% FBS+PS+DMEM. 24 h after seeding the cells, they were exposed to the compounds or DMSO control for 16 h in a humidified 5% CO2 incubator at 37° C., before harvesting them.\nCells were harvested for RNA extraction using Nucleospin 96 RNA (Macherey-Nagel, cat #740709.4) following manufacturer's protocol. Briefly, supernatant was removed, and the cells were gently washed with 1× phosphate-buffered saline. 300 μL lysis buffer were added to each well of 24 well cell culture plates. Roughly 0.1 million cells were used for harvesting each RNA sample. RNA concentration was measured for all purified RNA samples using a nanodrop spectrophotometer."}, "[6]": {"tested_on": "Rpd3-sensitive acid phosphatase activity", "test": "Yeast acid phosphatase plate assay", "format": "cell-based, S. cerevisiae", "details": "phosphate-rich (high Pi) medium", "experimental": "The acid phosphatase plate assay was implemented as previously described [To et al 1973, Loewith et al 2001], with minor modifications. Cells were grown on high Pi medium (see above) for 2 days, at 30° C. A staining solution containing 2 mg/mL of 1-naphtyl phosphate (Sigma, N5602) and 4 mg/mL fast blue B salt (Sigma, D9805) was then prepared in 50 mM sodium acetate buffer pH 4.0±0.1, and maintained at 50° C. for ˜30 min before being filtered. Meanwhile, a solution of 10 mg/mL (1% weight/volume) ultra pure low melting point (LMP) agarose (Invitrogen, 15517-022) was prepared in 50 mM sodium acetate buffer pH 4.0±0.1, by microwaving the suspension until complete dissolution of the powder. The volume of the agarose solution was checked and readjusted with 50 mM sodium acetate buffer pH 4.0±0.1. The agarose solution was then mixed with the filtered staining solution by vortexing briefly, and the resulting suspension was kept at 50° C. for ˜15 min. The solid agar plate on which cells grew for 2 days were then gently overlaid with the agarose-containing staining solution, allowing its gelification on top of the cells. A red coloring started to appear ˜2 min after covering cells with the solution."}, "[7]": {"tested_on": "human neuroblastoma SK-N-BE(2)-C xenograft", "test": "Neuroblastoma xenograft efficacy study", "format": "in vivo", "details": "E6R 50 mg/kg, SAHA 20 mg/kg", "experimental": "Xenografts studies were performed at the TRACE PDX platform of the Leuven Cancer Institute (LKI) at KU Leuven-UZ Leuven. Treatment experiments included 24 NMRI-Foxlnu nude mice (Taconic) implanted with human neuroblastoma cell line SK-N-BE(2)-C(2 million cells/implant/mouse). Cells, tested for a full panel of murine pathogens (Impact profile I, IDEXX) prior to engraftment, were resuspended in 50% matrigel solution in PBS for injection in the mouse right flank. When tumors reached a volume of approximately 200 mm^3, mice were randomly assigned to vehicle (34% DMSO, 55% saline 0.9%, 5% ethanol, 5% kolliphor, 1% NaOH 1 M), E6R (50 mg/kg), or SAHA (20 mg/kg) treatment groups. Treatments were administered daily intraperitoneally for 10 days or until reaching human endpoint (i.e. tumor volume >1,500 mm^3). Tumors were measured daily with digital calipers, and volume was estimated as V=L×W×H×(π/6) (L: length; W: width; H: height). […] All data were analyzed using GraphPad Prism 8. Comparisons between the vehicle and treated groups were tested for statistical significance using […]."}, "[8]": {"tested_on": "DOI-induced head-twitch response (HTR)", "details": "literature reports; cited from earlier work"}, "[9]": {"biological_target": "Sin3 PAH2/Ume6 SID interaction (Saccharomyces cerevisiae, UniProt P22579)", "sequence (P22579 402-473)": "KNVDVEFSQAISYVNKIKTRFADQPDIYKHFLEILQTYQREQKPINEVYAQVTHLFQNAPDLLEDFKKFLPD", "test": "biochemical", "protocol": "IC50 determination for unlabeled Ume6 SID, E6, E6R and E6S: the concentrations of FITC-Ume6 SID (30 nM), and GST-Sin3 PAH2 (3 μM) were fixed and the compounds were titrated with an HP D300 (Hewlett-Packard, CA) to the assay plate. The assayed concentrations are given here as μM concentrations: 6, 6.6, 8.6, 11.2, 14.7, 19.3, 25.3, 33.1, 43.4, 56.9, 74.5, 97.7, 128, 167.7, 219.7, 287.9, 377.2, 494.2, 647.5 and 848.3.\nUsing a fluorescence polarization (FP) assay, the interaction between the two minimal domains of Sin3 and Ume6 reported in the literature was measured [Washburn & Esposito 2001, Le Guezennec et al 2006]: the paired amphipathic helix 2 (PAH2; residues 402-473) and the Sin3-interacting domain (SID; residues 516-531), respectively (FIG. 6A). In this FP setting, Sin3 PAH2 is N-terminally fused to a glutathione S-transferase (GST) tag while Ume6 SID is labeled with a fluorescein isothiocyanate (FITC) probe at the N-terminal position. […] The binding affinity of this interaction was evaluated at 0.9 μM, as reflected by the calculated equilibrium dissociation constant, KD.\nTo examine inhibition of the Sin3-Ume6 interaction by E6 outside of potential interference from other cellular components, an in vitro fluorescence polarization (FP) assay was used."}, "[10]": {"biological_target": "Sc Sin3 PAH2-Ume6 SID (TAMRA-labeled) interaction (Saccharomyces cerevisiae, UniProt P22579)", "sequence (P22579 402-473)": "as above", "test": "biochemical", "protocol": "Symbols represent individual data points (A) or means with SEM, and lines fitted curves.\nIC50 determination for unlabeled Ume6 SID, E6, E6R and E6S: the concentrations of FITC-Ume6 SID (30 nM), and GST-Sin3 PAH2 (3 μM) were fixed and the compounds were titrated with an HP D300 (Hewlett-Packard, CA) to the assay plate."}}, "note": "Where “and” joins values, the source holds several entries; their conditions need not be identical. Equal entries are not always repeated. Entries after “also recorded” stand apart in the source; their conditions may differ. Square brackets hold non-standard residues; d marks the D form. Peptide text beside a SMILES is read from it. ξ: configuration not given here. Aoe(9ξ) = N[C@@H](CCCCCC(=O)C1CO1)C(=O)O; dPip = O=C(O)[C@H]1CCCCN1", "data": [{"compound": "CCN(CC)CCNC(=O)c1c(C)[nH]c(/C=C2\\C(=O)Nc3ccc(F)cc32)c1C", "note": "[sunitinib, reference compound]", "values": [{"measurement": "half-life in mouse liver microsomes", "setting": "[1]", "result": "~10", "unit": "min"}]}, {"compound": "O=C(CCCCC[C@@H]1NC(=O)[C@H]2CCCCN2C(=O)[C@H](Cc2ccccc2)NC(=O)[C@H](Cc2ccccc2)NC1=O)C1CO1", "note": "(stereo partly shown) [TRX, trapoxin A] (cyclo(FF[dPip][Aoe(9ξ)]))", "values": [{"measurement": "effect on CAR1 and SPO13 expression", "setting": "[2]; 250 μM", "result": "consistently derepressed"}, {"measurement": "effect on all Rpd3-regulated loci", "setting": "[2]; FIG. 3I", "result": "activated all Rpd3-regulated loci"}, {"measurement": "inhibition of HDAC enzymatic activity", "setting": "[3]", "result": "systematically reduced HDAC activity"}, {"measurement": "CYH sensitivity", "setting": "[4]", "result": "induced"}, {"measurement": "effect on expression of CDKN1A, SOCS3 and EGR1", "setting": "[5]", "result": "derepressed"}, {"measurement": "Rpd3-sensitive acid phosphatase activity", "setting": "[6]", "result": "induced"}]}, {"compound": "O=C(CCCCCCC(=O)Nc1ccccc1)NO", "note": "[SAHA, suberoylanilide hydroxamic acid, reference compound]", "values": [{"measurement": "tolerability and body weight of xenografted mice", "setting": "[7]; daily", "result": "did not affect mice weight; also recorded: well-tolerated"}, {"measurement": "growth of neuroblastoma tumors compared to vehicle", "setting": "[7]; daily intraperitoneally 10 days", "result": "significantly reduced the growth"}, {"measurement": "head-twitch behavior after chronic treatment", "setting": "[8]", "result": "reduced DOI-induced head-twitch behavior in WT, but not in HDAC2 cKO mice; also recorded: reduces head-twitch response (HTR) behavior"}, {"measurement": "effect on expression of CDKN1A, SOCS3 and EGR1", "setting": "[5]", "result": "derepressed"}]}, {"compound": "C[C@H](NC(=O)c1c(O)n2ccccc2nc1=O)c1ccccc1", "note": "[E6S]", "values": [{"measurement": "IC50", "setting": "[9]", "result": "155 µM and 174 µM"}, {"measurement": "Ki", "setting": "[9]; inhibitory concentration (Ki), from Example 6 IC50, assuming competitive inhibition", "result": "~30", "unit": "µM"}, {"measurement": "Ki", "setting": "[9]; inhibitory concentrations (Ki), from Example 6A IC50, assumption of competitive inhibition", "result": 38.5, "unit": "µM"}, {"measurement": "IC50", "setting": "[10]", "result": 597, "unit": "µM"}, {"measurement": "effect on expression of CDKN1A, SOCS3 and EGR1", "setting": "[5]", "result": "only perturbed expression of two of the tested downstream genes"}]}]}
